Results published in patent US5473083A, “Reduced and quaternized psoralens as photo-activated therapeutics” (Lehigh University, priority 1994, dated 1995).
Counter-ions that a name gives are not always drawn.

system: epidermal growth factor receptor (HeLa cells); assay: Epidermal growth factor binding inhibition assay: 125I-EGF binding to HeLa cells after treatment with phototherapeutic and UVA; assay type: cell-based, human; settings: cells pulsed with 2.1 J/cm^2 of ultraviolet light (UVA, 320-400 nm) after treatment, 2 nM 125I-EGF, 2 h at 4° C., read-out: IC50, concentration of each compound inhibiting 125I-EGF binding to HeLa cells by 50%
Description: The primary in vitro screen for the phototherapeutics described herein is based on our discovery that beneficial phototherapeutics inhibit binding in cells of epithelial origin with epidermal growth factor (EGF). Furthermore, the degree of effective competition in this EGF binding assay relates to the phototherapeutic effect of the test agent. [J. Laskin, E. Lee, D. Laskin, M. Gallo, Proc. Nat. Acad. Sci. (U.S.A.) 83:8211 (1986)].
Inhibition of EGF binding is dependent on dose of the phototherapeutic and on the quanta of light in the 320-400 nm wavelength (ultraviolet light A). It is also structure-dependent, that is, there is a direct correlation between those specific phototherapeutics currently used that are clinically active and their ability to inhibit the binding of epidermal growth factor to its receptor.
The ability of the above compounds in the presence of ultraviolet light, to inhibit epidermal growth factor binding to its cell surface receptor is directly related to its phototherapeutic potential. To assay these compounds for this biological activity, human cells (HeLa) grown in vitro were used. Cells (1.8×10^4 /cm^2) were inoculated into 5 cm culture dishes in growth medium consisting of Dulbecco's modified Eagle's medium supplemented with 10% newborn calf serum. After 4-5 days at 37° C. in a humidified CO2 incubator, the cells were washed three times with 2 ml of phosphate buffered saline and then incubated with the different phototherapeutics in 2 ml of Earle's salt solution supplemented with 5.2 mM D-glucose/25 mM Hepes buffer, pH 7.2. Control cultures were incubated in 2 ml of Earle's salt solution in the absence of the test drugs. After 30 minutes, the cells were then exposed to ultraviolet light (UVA, 320-400 nm) emitted from a bank of four BLB fluorescent light tubes (F40BL/Sylvania) placed approximately 10 cm above the cell culture plates. The incident light delivered onto the culture plates was 3.4 mW per cm^2 as measured with an International Light UV-Radiometer and the cells received 2.1 J/cm^2 of UVA light. After this light exposure, the cells were rinsed with phosphate buffered saline and submitted for assay of epidermal growth factor binding. Phototherapeutic treated cells were then incubated for 2 hours at 4° C. with 2 ml of binding buffer (Dulbecco's modified Eagle's medium/25 mM Hepes buffer, pH 7.2) containing 2 nM labeled epidermal growth factor (^125 I-EGF, specific activity 200 Ci/g).
Nonspecific binding was determined by incubating separate plates of cells with buffer containing the radioligand and excess unlabeled epidermal growth factor (1 microgram/ml). The binding reaction of the radioligand to the cells was terminated by aspirating the binding buffer from the culture dishes and washing the cells four times with ice cold phosphate buffered saline. The cells were then solubilized with 2 ml of 0.2M NaOH and duplicate 0.5 ml aliquots were taken for gamma counting. Specific binding of epidermal growth factor to its receptor was calculated by subtracting nonspecifically bound material from the total. Under the conditions of the assay, specific epidermal growth factor receptor binding represented greater than 80% of the total bound to the cells.
As a specific example of this assay, HeLa cells were treated with 4',5'-dihydropsoralen, followed by ultraviolet light exposure and then by measurement for epidermal growth factor binding. The data can be presented as a curve of epidermal growth factor receptor binding to the cells as a percentage of untreated cells. FIG. 1 is an example of 125-I EGF binding inhibition of 4',5'-dihydropsoralen and UVA. The concentration inhibiting epidermal growth factor binding to the cells by 50% (the IC50 value) is determined from the curve.
*IC50, concentration of each compound inhibiting 125I-EGF binding to
**Following treatment of the cells with the phototherapeutic they were
***Highest concentration tested

Q: With `Cc1oc2c(C)c3oc(=O)cc(C)c3cc2c1C[N+](C)(C)C` [4'-[(N,N,N,-trimethylannonium)methyl]-4,5',8-trimethylpsoralen iodide salt] as the compound, how does the IC50 read?
A: Its IC50 is 5 µM.

Q: `Cc1cc(=O)oc2c(C)c3c(cc12)CC(C)O3` (stereo not drawn) [4,5',8-trimethyl-4',5'-dihydropsoralen] was tested. Which IC50 did it give?
A: Its IC50 is 7 µM.

Q: Which IC50 does the source give for `O=c1ccc2ccccc2o1` [coumarin, reference compound] here?
A: Its IC50 is greater than 100 µM.

same assay, conditions: read-out: IC50, concentration of each compound inhibiting 125I-EGF binding to HeLa cells by 50%, cells pulsed with 2.1 J/cm^2 of ultraviolet light (UVA, 320-400 nm) after treatment, 2 nM 125I-EGF, 2 h at 4° C.

Q: With `CCOC(=O)c1cc2cc3c(cc2oc1=O)OCC3` [3-carboethoxy-4',5'-dihydropsoralen] as the compound, how does the IC50 read?
A: The IC50 was 4.9 µM.

Q: With `Cc1c([N+](=O)[O-])c(=O)oc2c(C)c3c(cc12)CC(C)O3` (stereo not drawn) [3-nitro-4,5',8-trimethyl-4',5'-dihydropsoralen] as the compound, how does the IC50 read?
A: The IC50 was 24 µM.

Q: Which IC50 does the source give for `O=c1ccc2cc3c(cc2o1)OCC3` [4',5'-dihydropsoralen] here?
A: The IC50 was 11 µM.

Q: Which IC50 does the source give for `Cc1cc(=O)oc2c(C)c3oc(CBr)c(Br)c3cc12` [4'-Bromo-5'-bromomethyl-4,8-dimethylpsoralen] here?
A: The IC50 was 3.6 µM.

Q: Which IC50 does the source give for `Cc1cc2cc3c(C)cc(=O)oc3c(C)c2o1` [4,5',8-trimethylpsoralen, reference compound] here?
A: Its IC50 is 6.6 µM.

Q: How did the IC50 turn out when `Cc1cc(=O)oc2c(C)c3oc(C[n+]4ccccc4)cc3cc12` [5'-[(N-Pyridinium)methyl]-4,8-dimethylpsoralen Bromide Salt] was run?
A: The IC50 was 0.74 µM.

Q: For `Cc1cc(=O)oc2c(C)c3oc(CBr)cc3cc12` [5'-bromomethyl-4,8-dinethylpsoralen, 5'-Bromomethyl-4,8-dimethylpsoralen], which IC50 is on record?
A: Its IC50 is 1.5 µM.

Q: `COc1c2c(cc3oc(=O)ccc13)OCC2` [5-methoxy-4',5'-dihydropsoralen] was tested. Which IC50 did it give?
A: Its IC50 is 2.8 µM.

Q: With `COc1c2ccoc2cc2oc(=O)ccc12` [5-methoxypsoralen (5-MOP), 5-methoxypsoralen, reference compound] as the compound, how does the IC50 read?
A: The IC50 was 1.6 µM.
